Source: patent publication US4209511A, “Aminoglycoside antibiotics and process for production thereof” (Yamanouchi Pharmaceutical Co., Ltd., priority 1978, dated 1980)
Converted amounts (≈) assume the structure as drawn. Where two headings read alike, the source gives them in different places.

Tests used:
[1] = test system: Staphylococcus aureus Smith; test: Minimum inhibitory concentration, Staphylococcus aureus Smith; type: cell-based; details: read-out: Minimum Inhibitory Concentration
[2] = test system: Staphylococcus aureus Onuma (PC-,SM-,Mac-resistant); test: Minimum inhibitory concentration, Staphylococcus aureus Onuma (PC-,SM-,Mac-resistant); type: cell-based; details: read-out: Minimum Inhibitory Concentration
Shigella sonnei II 37148 = test: Minimum inhibitory concentration, Shigella sonnei II 37148; type: cell-based; details: II37148
Proteus vulgaris OXK US = test: Minimum inhibitory concentration, Proteus vulgaris OXK US; type: cell-based; details: read-out: Minimum Inhibitory Concentration
[3] = test system: Escherichia coli K-12 ML-1629; test: Minimum inhibitory concentration, Escherichia coli K-12 ML-1629; type: cell-based; details: K12ML1629; Escherichia coli K-12 ML-1629 (inactivates aminoglycosides with a phosphotransferase)
Escherichia coli NIHJ = test: Minimum inhibitory concentration, Escherichia coli NIHJ; type: cell-based; details: read-out: Minimum Inhibitory Concentration
[4] = test system: Escherichia coli K-12 R-5; test: Minimum inhibitory concentration, Escherichia coli K-12 R-5; type: cell-based; details: for MIC: K12R5, Escherichia coli K-12 R-5 (inactivates aminoglycosides with an acetyltransferase)
[5] = test system: Micrococcus flavus ATCC 10240; test: Minimum inhibitory concentration, Micrococcus flavus ATCC 10240; type: cell-based
[6] = test system: Pseudomonas aeruginosa GN-315; test: Minimum inhibitory concentration, Pseudomonas aeruginosa GN-315; type: cell-based
Mycobacterium phlei = test: Minimum inhibitory concentration, Mycobacterium phlei; type: cell-based; details: Mycolicibacterium phlei, read-out: Minimum Inhibitory Concentration
Sarcina lutea ATCC 9341 = test: Minimum inhibitory concentration, Sarcina lutea ATCC 9341; type: cell-based; details: Micrococcus luteus
Solubility = type: physicochemical; details: free base (lyophilized product)
[7] = test system: Salmonella enteritidis 1891; test: Minimum inhibitory concentration, Salmonella enteritidis 1891; type: cell-based; details: Salmonella enterica, read-out: Minimum Inhibitory Concentration
[8] = test system: Staphylococcus aureus (PC-,SM-,TC-,KM-,Mac-resistant); test: Minimum inhibitory concentration, Staphylococcus aureus (PC-,SM-,TC-,KM-,Mac-resistant); type: cell-based; details: read-out: Minimum Inhibitory Concentration
[9] = test system: Pseudomonas aeruginosa 99; test: Minimum inhibitory concentration, Pseudomonas aeruginosa 99; type: cell-based; details: Pseudomonas aeruginosa 99 (inactivates aminoglycosides with an acetyltransferase)
[10] = test system: Pseudomonas melanogenum IAM 1655; test: Minimum inhibitory concentration, Pseudomonas melanogenum IAM 1655; type: cell-based
[11] = test system: Pseudomonas aeruginosa ATCC 8689; test: Minimum inhibitory concentration, Pseudomonas aeruginosa ATCC 8689; type: cell-based
in vivo = details: mouse, iv
[12] = ATCC10240, Micrococcus flavus ATCC 10240, read-out: Minimum Inhibitory Concentration
[13] = GN315, Pseudomonas aeruginosa GN-315, read-out: Minimum Inhibitory Concentration
[14] = ATCC9341, Sarcina lutea ATCC 9341, read-out: Minimum Inhibitory Concentration
[15] = Staphylococcus aureus (PC-,SM-,TC-,KM-,Mac-resistant)
[16] = IAM1655, Pseudomonas melanogenum IAM 1655, read-out: Minimum Inhibitory Concentration
[17] = ATCC8689, Pseudomonas aeruginosa ATCC 8689, read-out: Minimum Inhibitory Concentration
[18] = Staphylococcus aureus Onuma (PC-,SM-,Mac-resistant)
[19] = Micrococcus flavus, ATCC10240, read-out: Minimum Inhibitory Concentration
[20] = ATCC9341, read-out: Minimum Inhibitory Concentration
[21] = Pseudomonas, IAM1655, read-out: Minimum Inhibitory Concentration
[22] = Pseudomonas aeruginosa, ATCC8689, read-out: Minimum Inhibitory Concentration
[23] = Pseudomonas aeruginosa, GN315, read-out: Minimum Inhibitory Concentration

SMILES	MIC (Shigella sonnei II 37148)	MIC (Proteus vulgaris OXK US; Proteus vulgaris)	MIC [3]	MIC (Escherichia coli NIHJ; Escherichia coli NIHJ)	MIC [4]	MIC [5, 12]	MIC [6, 13]	MIC (Mycobacterium phlei; Mycobacterium phlei)	MIC (Sarcina lutea ATCC 9341; [14])	Solubility in acetone (Solubility)	Solubility in chloroform, benzene, ethyl acetate, butyl acetate, ether, n-hexane, etc. (Solubility)	Solubility in ethanol (Solubility)	Solubility in methanol (Solubility)	Solubility in water (Solubility)	MIC ([7]; Salmonella enteritidis 1891)	MIC [8, 15]	MIC [9]	MIC [2, 18]	MIC [10, 21]	MIC [11, 22]	also measured
CNC1C(O)C(OC2C(N)CC(N)C(OC3OC(CN)CCC3O)C2O)OC(CO)C1(C)O (centres unmarked) [I-A2, 3"-N-Methyl-4"-C-methyl-3',4'-dideoxykanamycin A or its 4"-epimer]	3.13 µg/mL (≈ 6.51 µM)	3.13 µg/mL (≈ 6.51 µM)	3.13 µg/mL (≈ 6.51 µM)	1.56 µg/mL (≈ 3.25 µM)	> 100 µg/mL	0.78 µg/mL (≈ 1.62 µM)	> 100 µg/mL	1.56 µg/mL (≈ 3.25 µM)	0.78 µg/mL (≈ 1.62 µM)	sparingly soluble	insoluble	sparingly soluble	soluble	Very easily soluble	1.56 µg/mL (≈ 3.25 µM)	6.25 µg/mL (≈ 13 µM)	12.5 µg/mL (≈ 26 µM)	–	–	–	MIC ([1]; Staphylococcus aureus): 3.13 µg/mL (≈ 6.51 µM); MIC ([2]; Staphylococcus aureus): 3.13 µg/mL (≈ 6.51 µM); MIC [10, 16]: 6.25 µg/mL (≈ 13 µM); MIC [11, 17]: 6.25 µg/mL (≈ 13 µM)
NC[C@H]1O[C@H](O[C@H]2[C@H](O)[C@@H](O[C@H]3O[C@H](CO)[C@@H](O)[C@H](N)[C@H]3O)[C@H](N)C[C@@H]2N)[C@H](N)[C@@H](O)[C@@H]1O [KM-B, Kanamycin B, reference compound]	1.56 µg/mL (≈ 3.23 µM)	6.25 µg/mL (≈ 12.9 µM)	> 100 µg/mL	–	> 100 µg/mL	–	100 µg/mL (≈ 207 µM)	–	–	–	–	–	–	–	–	50 µg/mL (≈ 103 µM)	50 µg/mL (≈ 103 µM)	0.78 µg/mL (≈ 1.61 µM)	50 µg/mL (≈ 103 µM)	100 µg/mL (≈ 207 µM)	MIC (Escherichia coli NIHJ; Escherichia coli): 1.56 µg/mL (≈ 3.23 µM); MIC [5, 19]: 1.56 µg/mL (≈ 3.23 µM); MIC (Mycobacterium phlei): 3.13 µg/mL (≈ 6.47 µM); MIC (Sarcina lutea ATCC 9341; [20]): 0.78 µg/mL (≈ 1.61 µM); MIC ([7]; ENTERITIDIS): 1.56 µg/mL (≈ 3.23 µM)
NC[C@@H]1CC[C@@H](N)[C@@H](O[C@H]2[C@H](O)[C@@H](O[C@H]3O[C@H](CO)[C@@H](O)[C@H](N)[C@H]3O)[C@H](N)C[C@@H]2N)O1 [DKB, Dibekacin, reference compound]	1.56 µg/mL (≈ 3.45 µM)	1.56 µg/mL (≈ 3.45 µM)	1.56 µg/mL (≈ 3.45 µM)	0.78 µg/mL (≈ 1.73 µM)	100 µg/mL (≈ 221 µM)	3.13 µg/mL (≈ 6.93 µM)	100 µg/mL (≈ 221 µM)	–	–	–	–	–	–	–	0.78 µg/mL (≈ 1.73 µM)	0.19 µg/mL (≈ 0.421 µM)	1.56 µg/mL (≈ 3.45 µM)	0.19 µg/mL (≈ 0.421 µM)	1.56 µg/mL (≈ 3.45 µM)	1.56 µg/mL (≈ 3.45 µM)	MIC ([1]; Staphylococcus aureus Smith): 0.78 µg/mL (≈ 1.73 µM); MIC (Mycobacterium phlei): 1.56 µg/mL (≈ 3.45 µM); MIC (Sarcina lutea ATCC 9341; [20]): 1.56 µg/mL (≈ 3.45 µM)
CNC1C(O)C(OC2C(N)CC(N)C(OC3OC(CN)CCC3N)C2O)OC(CO)C1(C)O (centres unmarked) [I-B2, 3"-N-Methyl-4"-C-methyl-3',4'-dideoxykanamycin B or its 4"-epimer]	0.78 µg/mL (≈ 1.63 µM)	–	1.56 µg/mL (≈ 3.25 µM)	0.78 µg/mL (≈ 1.63 µM)	25 µg/mL (≈ 52.1 µM)	0.39 µg/mL (≈ 0.813 µM)	50 µg/mL (≈ 104 µM)	0.39 µg/mL (≈ 0.813 µM)	0.39 µg/mL (≈ 0.813 µM)	sparingly soluble	insoluble	sparingly soluble	soluble	Very easily soluble	0.39 µg/mL (≈ 0.813 µM)	0.19 µg/mL (≈ 0.396 µM)	6.25 µg/mL (≈ 13 µM)	0.19 µg/mL (≈ 0.396 µM)	1.56 µg/mL (≈ 3.25 µM)	–	MIC ([1]; Staphylococcus aureus Smith): 0.39 µg/mL (≈ 0.813 µM); MIC (Proteus vulgaris OXK US; Proteus vulgaris OXK US): 0.78 µg/mL (≈ 1.63 µM); MTD (in vivo): 125 mg/kg; MIC [11, 17]: 3.13 µg/mL (≈ 6.53 µM)
NCC1OC(OC2C(N)CC(N)C(OC3OC(CO)C(O)C(N)C3O)C2O)C(O)C(O)C1O (centres unmarked) [KM-A, Kanamycin A, reference compound]	3.13 µg/mL (≈ 6.46 µM)	6.25 µg/mL (≈ 12.9 µM)	> 100 µg/mL	–	> 100 µg/mL	–	–	–	–	–	–	–	–	–	–	–	100 µg/mL (≈ 206 µM)	–	–	> 100 µg/mL	MIC ([1]; Staphylococcus aureus): 3.13 µg/mL (≈ 6.46 µM); MIC ([2]; Staphylococcus aureus): 1.56 µg/mL (≈ 3.22 µM); MIC (Escherichia coli NIHJ; Escherichia coli): 3.13 µg/mL (≈ 6.46 µM); MIC [5, 19]: 6.25 µg/mL (≈ 12.9 µM); MIC [6, 23]: > 100 µg/mL; MIC (Mycobacterium phlei): 1.56 µg/mL (≈ 3.22 µM); MIC (Sarcina lutea ATCC 9341; [20]): 3.13 µg/mL (≈ 6.46 µM); MIC ([7]; ENTERITIDIS): 3.13 µg/mL (≈ 6.46 µM); MIC ([8]; Staphylococcus aureus): > 100 µg/mL; MIC [10, 16]: > 100 µg/mL
CNCC1CCC(N)C(OC2C(N)CC(N)C(OC3OC(CO)C(C)(O)C(NC)C3O)C2O)O1 (centres unmarked) [I-B1, 3"-N-Methyl-4"-C-methyl-3',4'-dideoxy-6'-N-methylkanamycin B or its 4"-epimer]	0.78 µg/mL (≈ 1.58 µM)	–	1.56 µg/mL (≈ 3.16 µM)	0.78 µg/mL (≈ 1.58 µM)	1.56 µg/mL (≈ 3.16 µM)	0.39 µg/mL (≈ 0.79 µM)	–	0.78 µg/mL (≈ 1.58 µM)	0.39 µg/mL (≈ 0.79 µM)	sparingly soluble	insoluble	soluble	soluble	Very easily soluble	0.78 µg/mL (≈ 1.58 µM)	0.19 µg/mL (≈ 0.385 µM)	3.13 µg/mL (≈ 6.34 µM)	0.19 µg/mL (≈ 0.385 µM)	1.56 µg/mL (≈ 3.16 µM)	3.13 µg/mL (≈ 6.34 µM)	MIC ([1]; Staphylococcus aureus Smith): 0.39 µg/mL (≈ 0.79 µM); MIC (Proteus vulgaris OXK US; Proteus vulgaris OXK US): 0.78 µg/mL (≈ 1.58 µM); inhibited the growth of resistant bacteria ([4]; Escherichia coli K-12 R-5, inactivates Kanamycin B by acetylating the 6'-amino group): inhibited the growth; inhibited the growth of resistant bacteria ([6]; Pseudomonas aeruginosa GN 315, inactivates Kanamycin B by acetylating the 6'-amino group): inhibited the growth; MIC [6, 23]: 1.56 µg/mL (≈ 3.16 µM)
